Measurements reported in US9181265B2, “Substituted 2,3-dihydro-1H-benzo[a]pyrano[2,3-c]phenazines as anti-angiogenic and anti-cancer agents” (UNIVERSITE CATHOLIQUE DE LOUVAIN, priority 2010, dated 2015).
Like-named read-outs stand apart in the source and are kept apart here. Marks after values point to notes of the source that are not given here.

Key:
[1] = test system: PC3; test: MTT test of overall cell growth, PC3 prostate cancer cells, normoxia or hypoxia; assay type: cell-based, human; conditions: for Selectivity: PC3, IC50 (normoxia)/IC50 (hypoxia 1% O2), if u.t.d., ratio of activity at 100 μM
Description: (§1) MTT tests were performed in order to rapidly, i.e. within 3 days, measure the effect of compounds of this invention on the overall cell growth. The test measured the number of metabolically active living cells that were able to transform the yellow product 3-(4,5-dimethylthiazol-2-yl)-2,5-diphenyl tetrazolium bromide (herein referred as MTT) into the blue product formazan dye by mitochondrial reduction. The amount of formazan obtained at the end of the experiment, measured by means of a spectrophotometer (Plate Reader Victor X4 Microplate reader (Perkin Elmer), is directly proportional to the number of living cells. Optical density determination thus enabled a quantitative measurement of the effect of the investigated compounds under control conditions (normoxia) as compared to the hypoxic conditions (0.1 or 1% O2) and/or untreated conditions.
(§2) Human umbilical vein endothelial cells (HUVEC) and six human cancer cell lines were used in the MTT tests. These cancer cell lines cover five histological cancer types including cervix (SiHa), breast (MCF-7 and MDA-MB231), prostate (PC3), glioma (U373), and colorectal (LoVo) cancers.
(§3) To perform the assay, cells were allowed to grow in 96-well microplates with a flat bottom following addition of an amount of 100 μl of cell suspension per well with 4,500 cells/well. Each cell line was seeded in its appropriate culture medium. HUVEC were cultured in a specific endothelial cell growth medium (ECACC, Sigma); SiHa cells in Glutamax-containing DMEM with 4.5 g/1 glucose (Invitrogen) supplemented with 10% Foetal Bovine Serum (PAA) and 1% penicillin+streptomycin mix (Invitrogen); MCF-7, MDA-MB-231, PC3, and LoVo cells in Glutamax-containing RPMI supplemented with 10% Foetal Bovine Serum (PAA) and 1% penicillin+streptomycin mix (Invitrogen) and U373 cells in Glutamax-containing DMEM (Invitrogen) with 5% Foetal Bovine Serum (PAA) and 1% penicillin+streptomycin mix (Invitrogen).
(§4) The detailed experimental procedure was the following: after a 24-hour period of incubation at 37° C., the culture medium was replaced by 100 μl of fresh medium in which the tested compound was previously dissolved, at the following concentrations: 10^−8 M, 5.10^−8, 10^−7, 5.10^−7, 10^−6, 5.10^−6, 10^−5, 5.10^−5 and 10^−[…]. Each experiment was performed in sestuplicates (6 times).
(§5) Cells were then incubated under normoxia in a Binder incubator (the O2 level corresponding to the concentration in the ambient air), or in a Ruskin hypoxia workstation under either 0.1% O2 (v/v) or 1% O2 (v/v). Under both conditions, the atmosphere was humidified and the CO2 concentration was fixed at 5 vol. %.
(§6) After 72 hours of incubation at 37° C. under normoxic or hypoxic conditions, with or without the compound to be tested, the medium was replaced by 100 μl of HBSS (without phenol red) containing MTT at a concentration of 0.5 or 1 mg/ml. The micro-wells were subsequently incubated during 3 hours and a half at 37° C. and centrifuged at 1300 rpm during 10 minutes. Medium was removed and formazan crystals formed were dissolved in 100 μl DMSO. The micro-wells were shaken for 5 minutes and read on a spectrophotometer at wavelengths of 570 nm (maximal formazan absorbance).
(§7) For each experimental condition, the mean optical density was calculated, allowing the determination of the percentage of living cells in comparison to the control.

[2] = test system: U373; test: MTT test of overall cell growth, U373 glioma cells, normoxia or hypoxia; assay type: cell-based, human; conditions: for Selectivity: U373, IC50 (normoxia)/IC50 (hypoxia 1% O2), if u.t.d., ratio of activity at 100 μM
Description: as §1, §2, §3, §4, §5, §6, §7

[3] = test system: LoVo; test: MTT test of overall cell growth, LoVo colorectal cancer cells, normoxia or hypoxia; assay type: cell-based, human; conditions: for Selectivity: IC50 (normoxia)/IC50 (hypoxia 1% O2), if u.t.d., ratio of activity at 100 μM
Description: as §1, §2, §3, §4, §5, §6, §7

[4] = test system: siHa; test: MTT test of overall cell growth, SiHa cervix cancer cells, normoxia or hypoxia; assay type: cell-based, human; conditions: for Selectivity: IC50 (normoxia)/IC50 (hypoxia 1% O2), if u.t.d., ratio of activity at 100 μM
Description: as §1, §2, §3, §4, §5, §6, §7

[5] = test system: MCF-7; test: MTT test of overall cell growth, MCF-7 breast cancer cells, normoxia or hypoxia; assay type: cell-based, human; conditions: for Selectivity: MCF-7, IC50 (normoxia)/IC50 (hypoxia 1% O2), if u.t.d., ratio of activity at 100 μM
Description: as §1, §2, §3, §4, §5, §6, §7

[6] = test system: MDA-MB-231; test: MTT test of overall cell growth, MDA-MB-231 breast cancer cells, normoxia or hypoxia; assay type: cell-based, human; conditions: for Selectivity: MDA-MB-231, IC50 (normoxia)/IC50 (hypoxia 1% O2), if u.t.d., ratio of activity at 100 μM
Description: as §1, §2, §3, §4, §5, §6, §7

[7] = test system: Human umbilical vein endothelial cells (HUVEC); test: MTT test of overall cell growth, endothelial cells, normoxic or hypoxic conditions; assay type: cell-based; conditions: for Selectivity: if u.t.d., ratio of activity at 100 μM
Description: as §1, §2, §3, §4, §5, §6, §7

[8] = PC3, hypoxia 1% O2, 72 h, read-out: IC50 (μM) Hypoxia 1% O2
[9] = PC3, normoxia, 72 h, read-out: IC50 (μM) Normoxia
[10] = U373, hypoxia 1% O2, 72 h, read-out: IC50 (μM) Hypoxia 1% O2
[11] = U373, normoxia, 72 h, read-out: IC50 (μM) Normoxia
[12] = hypoxia 1% O2, 72 h, read-out: IC50 (μM) Hypoxia 1% O2
[13] = normoxia, 72 h, read-out: IC50 (μM) Normoxia
[14] = MCF-7, hypoxia 1% O2, 72 h, read-out: IC50 (μM) Hypoxia 1% O2
[15] = MCF-7, normoxia, 72 h, read-out: IC50 (μM) Normoxia
[16] = MDA-MB-231, hypoxia 1% O2, 72 h, read-out: IC50 (μM) Hypoxia 1% O2
[17] = MDA-MB-231, normoxia, 72 h, read-out: IC50 (μM) Normoxia
[18] = IC50 (normoxia)/IC50 (hypoxia 0.1%)
[19] = IC50 (normoxia)/IC50 (hypoxia 1%)
[20] = hypoxia 0.1% O2, 72 h, read-out: IC50 (μM) Hypoxia 0.1%
[21] = hypoxia 1% O2, 72 h, read-out: IC50 (μM) Hypoxia 1%
[22] = normoxia, 72 h, series compared with hypoxia 0.1%, read-out: IC50 (μM) Normoxia
[23] = normoxia, 72 h, series compared with hypoxia 1%, read-out: IC50 (μM) Normoxia
[24] = Homo sapiens, U373 MG, U373, hypoxia 1% O2, 72 h, read-out: IC50 (μM) Hypoxia 1% O2
[25] = Homo sapiens, hypoxia 1% O2, 72 h, read-out: IC50 (μM) Hypoxia 1% O2
[26] = Homo sapiens, normoxia, 72 h, read-out: IC50 (μM) Normoxia
[27] = Homo sapiens, MCF7, MCF-7, hypoxia 1% O2, 72 h, read-out: IC50 (μM) Hypoxia 1% O2
[28] = Homo sapiens, MDA-MB-231, hypoxia 1% O2, 72 h, read-out: IC50 (μM) Hypoxia 1% O2
[29] = Homo sapiens, 72 h, hypoxia 0.1% O2, 72 h, read-out: IC50 (μM) Hypoxia 0.1%
[30] = Homo sapiens, 72 h, hypoxia 1% O2, 72 h, read-out: IC50 (μM) Hypoxia 1%
[31] = Homo sapiens, 72 h, normoxia, 72 h, series compared with hypoxia 0.1%, read-out: IC50 (μM) Normoxia
[32] = Homo sapiens, 72 h, normoxia, 72 h, series compared with hypoxia 1%, read-out: IC50 (μM) Normoxia

SMILES | IC50 [1, 8] | IC50 [1, 9] | Selectivity [1] | IC50 [2, 10] | IC50 [2, 11] | Selectivity [2] | Selectivity [3] | IC50 [3, 12] | IC50 [3, 13] | Selectivity [4] | IC50 [4, 12] | IC50 [4, 13] | IC50 [5, 14] | IC50 [5, 15] | Selectivity [5] | IC50 [6, 16] | IC50 [6, 17] | Selectivity [6] | Selectivity [7, 18] | Selectivity [7, 19] | other results
CC1CCC2C(C1)c1c(c3ccccc3c3nc4ccc(C(=O)NC(CO)Cc5ccccc5)cc4nc13)OC2(C)C (mixture of isomers) [Compound 17′] | 11.6 µM | 15.2 µM | 1.31 | 1.34 µM | 11.6 µM | 8.67 | 1.64 | 11.4 µM | 18.8 µM | 9.50 | 10.7 µM | 102 µM | 12.5 µM | 17.2 µM | 1.37 | 11.1 µM | 59.9 µM | 5.40 | 230 | 16 | IC50 [7, 20]: 0.07 µM; IC50 [7, 21]: 0.36 µM; IC50 [7, 22]: 17 µM; IC50 [7, 23]: 5.72 µM
C[C@H]1CC[C@H]2[C@H](C1)c1c(c3ccccc3c3nc4cc(C(=O)N[C@@H](CO)Cc5ccccc5)ccc4nc13)OC2(C)C [Compound 17] | 11.1 µM | 10.4 µM | 0.94 | 1.23 µM | 6.97 µM | 5.65 | 1.04 | 9.47 µM | 9.83 µM | 7.12 | 10.5 µM | 75 µM | 11.1 µM | 12.2 µM | 1.10 | 11.4 µM | 13.4 µM | 1.17 | 134 | 8 | IC50 [7, 20]: 0.05 µM; IC50 [7, 21]: 0.63 µM; IC50 [7, 22]: 6.25 µM; IC50 [7, 23]: 5.18 µM
COC(=O)c1ccc2nc3c(nc2c1)c1c(c2ccccc23)OC(C)(C)[C@H]2CC[C@H](C)C[C@H]12 [Compound 11′] | – | – | >1.41^b | – | – | >3.03^b | 1.43 | – | – | >1.72^b | – | – | – | – | >1.52^b | – | – | >1.67^b | 16.5 | 15 | IC50 ([1]; Homo sapiens, PC-3, PC3, hypoxia 1% O2, 72 h, read-out: IC50 (μM) Hypoxia 1% O2): 161 µM; IC50 (μM) Normoxia ([1]; PC3, normoxia, 72 h): u.t.d.; IC50 [2, 24]: 74.9 µM; IC50 (μM) Normoxia ([2]; U373, normoxia, 72 h): u.t.d.; IC50 [3, 25]: 154 µM; IC50 [3, 26]: 220 µM; IC50 [4, 25]: 132 µM; IC50 (μM) Normoxia ([4]; normoxia, 72 h): u.t.d.; IC50 [5, 27]: 150 µM; IC50 (μM) Normoxia ([5]; MCF-7, normoxia, 72 h): u.t.d.; IC50 [6, 28]: 136 µM; IC50 (μM) Normoxia ([6]; MDA-MB-231, normoxia, 72 h): u.t.d.; IC50 [7, 29]: 13.6 µM; IC50 [7, 30]: 11.8 µM; IC50 [7, 31]: 225 µM; IC50 [7, 32]: 176 µM
COc1ccc(CNC(=O)c2ccc3nc4c5c(c6ccccc6c4nc3c2)OC(C)(C)[C@H]2CC[C@H](C)C[C@H]52)c(OC)c1 [Compound 16] | – | – | – | – | – | >1.14^b | <0.79^b | – | – | >1.92^b | – | – | – | – | >1.63^b | – | – | >1.16^b | 1480 | 3 | IC50 (μM) Hypoxia 1% O2 ([1]; PC3, hypoxia 1% O2, 72 h): u.t.d.; IC50 (μM) Normoxia ([1]; PC3, normoxia, 72 h): u.t.d.; IC50 [2, 24]: 234 µM; IC50 (μM) Normoxia ([2]; U373, normoxia, 72 h): u.t.d.; IC50 [3, 26]: 210 µM; IC50 (μM) Hypoxia 1% O2 ([3]; hypoxia 1% O2, 72 h): u.t.d.; IC50 [4, 25]: 138 µM; IC50 (μM) Normoxia ([4]; normoxia, 72 h): u.t.d.; IC50 [5, 27]: 164 µM; IC50 (μM) Normoxia ([5]; MCF-7, normoxia, 72 h): u.t.d.; IC50 [6, 28]: 230 µM; IC50 (μM) Normoxia ([6]; MDA-MB-231, normoxia, 72 h): u.t.d.; IC50 [7, 29]: 0.09 µM; IC50 [7, 30]: 14.4 µM; IC50 [7, 31]: 129 µM; IC50 [7, 32]: 42.6 µM
